Values after ≈ are worked out from the molar mass of the structure shown. Where two headings read alike, the source gives them in different places.
Columns and labels:
[1] = test system: T.Verrucosum; experiment: Antimycotic activity, two-fold serial broth dilution; type: cell-based; conditions: Trichophyton verrucosum, 168 h
Description: (§1) In Table II are reported the minimal inhibent concentrations (MIC) of the compounds I and of both the comparison substances. For MIC, the minimal concentration is intended, i.e., one which is able to inhibit the growth of several fungi and yeasts. The MIC values have been determined according to the usual two-fold serial broth dilution technique.
(§2) Medium: Sabouraud liquid pH 5.7 (5 ml per tube)
(§3) For Aspergillus niger, after filtration, a 1/10 dilution in physiological solution was prepared. 0.1 ml of this dilution constituted the inoculum for 5 ml.
(§4) Temperature and incubation time: 25° C. for 7 days.

[2] = test system: M.Canis 28; experiment: as above; type: cell-based; conditions: Microsporum canis, 168 h, Sabouraud liquid pH 5.7, 25° C., 7 days
Description: as §1, §2, §3, §4

[3] = test system: T.Mentagroph. 2538; experiment: as above; type: cell-based; conditions: 168 h, Sabouraud liquid pH 5.7, 25° C., 7 days
Description: as §1, §2, §3, §4

[4] = test system: T.Mentagroph. 10148; experiment: as above; type: cell-based; conditions: 168 h
Description: as §1, §2, §3, §4

[5] = test system: E.Floccosum; experiment: as above; type: cell-based; conditions: Epidermophyton floccosum, 168 h, Sabouraud liquid pH 5.7, 25° C., 7 days
Description: as §1, §2, §3, §4

[6] = test system: T.Rubrum 2121; experiment: as above; type: cell-based
Description: as §1, §2, §3, §4

[7] = test system: T.Mentagroph. 5865; experiment: as above; type: cell-based; conditions: 168 h, Sabouraud liquid pH 5.7, 25° C., 7 days
Description: as §1, §2, §3, §4

[8] = test system: P.Chrysogenum; experiment: as above; type: cell-based; conditions: Penicillium chrysogenum, 168 h, Sabouraud liquid pH 5.7, 25° C., 7 days
Description: as §1, §2, §3, §4

[9] = test system: A.Niger; experiment: as above; type: cell-based; conditions: Aspergillus niger, 168 h, Sabouraud liquid pH 5.7, 25° C., 7 days, inoculum 1/10 dilution
Description: as §1, §2, §3, §4

[10] = test system: C.Albicans R; experiment: as above; type: cell-based; conditions: Candida albicans, Sabouraud liquid pH 5.7, 37° C., 48 hours
Description: as §1, §2
(§5) Inoculum: Yeasts were grown in Sabouraud liquid for 24 hours (Cryptococcus neoformans for 2 days). Cells were collected by centrifugation at 6500 rpm and again suspended in physiological solution so as to have a suspension giving on a Coleman Jr II spectrophotometer, at a wavelength of 650 nm, a 50% transparence (T). 0.1 ml of this suspension constituted the inoculum for 5 ml.
(§6) Temperature and incubation time: 37° C. for 48 hours.

[11] = test system: C.Albicans 1040; experiment: as above; type: cell-based; conditions: Candida albicans, Sabouraud liquid pH 5.7, 37° C., 48 hours
Description: as §1, §2, §5, §6

[12] = test system: C.Albicans Grunenthal; experiment: as above; type: cell-based; conditions: Candida albicans, Sabouraud liquid pH 5.7, 37° C., 48 hours
Description: as §1, §2, §5, §6

[13] = test system: C.Albicans 1041; experiment: as above; type: cell-based; conditions: Candida albicans, Sabouraud liquid pH 5.7, 37° C., 48 hours
Description: as §1, §2, §5, §6

[14] = test system: C.Neoformans; experiment: as above; type: cell-based; conditions: Cryptococcus neoformans
Description: as §1, §2, §5, §6

[15] = Acute toxicity per os in the mouse; conditions: in vivo, po
Description: In Table I are reported the acute toxicity values (LD50) of the compounds I and of both the comparison substances. Toxicity, given in mg/Kg, has been evaluated per os in the mouse by conventional methods.

[16] = test system: S.aureus 10B; experiment: Antibacterial activity, two-fold serial broth dilution; type: cell-based; conditions: Staphylococcus aureus
Description: (§7) The MIC values of the products under examination and of both comparison substances, referred to a certain number of gram positive bacteria and determined according to the conventional two-fold serial broth dilution technique, are reported in Table III.
(§8) Medium: Tryptic soy broth pH 7.3 (5 ml per tube)
(§9) Inoculum: The day before the test, the microorganisms to be tested were transplanted in their respective media. After 18 hours incubation at 37° C., 0.1 ml of a 1:100 diluted suspension of each strain in broth, were inoculated in 5 ml of medium containing the products under examination at a serial concentration of from 0.009 to 160 mcg/ml.
(§10) Temperature and incubation time: 37° C. for 18 hours.

[17] = test system: Str.hemolyt 821; experiment: as above; type: cell-based; conditions: Tryptic soy broth pH 7.3, 37° C., 18 hours
Description: as §7, §8, §9, §10

[18] = test system: Str.hemolyt 203; experiment: as above; type: cell-based
Description: as §7, §8, §9, §10

[19] = test system: Cl. novyi; experiment: as above; type: cell-based; conditions: Clostridium novyi, Tryptic soy broth pH 7.3, 37° C., 18 hours
Description: as §7, §8, §9, §10

[20] = test system: S.aureus SG 511; experiment: as above; type: cell-based; conditions: Staphylococcus aureus
Description: as §7, §8, §9, §10

[21] = test system: B.subtilis; experiment: as above; type: cell-based; conditions: Bacillus subtilis
Description: as §7, §8, §9, §10

[22] = pH 5.7, read-out: Antimycotic activity (MIC)
[23] = Trichophyton rubrum, 2121, 168 h, pH 5.7, read-out: Antimycotic activity (MIC)
[24] = 48 h, pH 5.7, read-out: Antimycotic activity (MIC)
[25] = 10B, 18 h, pH 7.3, read-out: Antibacterial activity (MIC)
[26] = Str.hemolyt 203, Tryptic soy broth pH 7.3, 37° C., 18 hours, read-out: Antibacterial activity (MIC)
[27] = SG511, 18 h, pH 7.3, read-out: Antibacterial activity (MIC)
[28] = 18 h, pH 7.3, read-out: Antibacterial activity (MIC)
[29] = T.Verrucosum, Sabouraud liquid pH 5.7, 25° C., 7 days, read-out: Antimycotic activity (MIC)
[30] = T.Mentagroph. 10148, Sabouraud liquid pH 5.7, 25° C., 7 days, read-out: Antimycotic activity (MIC)
[31] = Trichophyton rubrum, 168 h, T.Rubrum 2121, Sabouraud liquid pH 5.7, 25° C., 7 days, read-out: Antimycotic activity (MIC)
[32] = C.Neoformans, Sabouraud liquid pH 5.7, 37° C., 48 hours, read-out: Antimycotic activity (MIC)
[33] = S.aureus 10B, Tryptic soy broth pH 7.3, 37° C., 18 hours, read-out: Antibacterial activity (MIC)
[34] = SG511, S.aureus SG 511, Tryptic soy broth pH 7.3, 37° C., 18 hours, read-out: Antibacterial activity (MIC)
[35] = B.subtilis, Tryptic soy broth pH 7.3, 37° C., 18 hours, read-out: Antibacterial activity (MIC)

| SMILES | MIC [2] | MIC [3] | MIC [4, 22] | MIC [5] | MIC [6, 23] | MIC [7] | MIC [8] | MIC [9] | MIC [10] | MIC [11] | MIC [12] | MIC [13] | MIC [14, 24] | LD50 [15] | MIC [16, 25] | MIC [17] | MIC [18, 26] | MIC [19] | MIC [20, 27] | MIC [1, 29] | also measured |
| --- | --- | --- | --- | --- | --- | --- | --- | --- | --- | --- | --- | --- | --- | --- | --- | --- | --- | --- | --- | --- | --- |
| Clc1ccccc1C(c1ccccc1)(c1ccccc1)n1ccnc1 [Clotrimazole, [(imidazol-1-yl)-2-(o-chlorophenyl)-2,2-diphenylmethane]] | 2.5 µg/mL (≈ 7.25 µM) | 0.078 µg/mL (≈ 0.226 µM) | 1.25 µg/mL (≈ 3.62 µM) | 5 µg/mL (≈ 14.5 µM) | 1.25 µg/mL (≈ 3.62 µM) | 0.62 µg/mL (≈ 1.8 µM) | 40 µg/mL (≈ 116 µM) | 10 µg/mL (≈ 29 µM) | 10 µg/mL (≈ 29 µM) | 40 µg/mL (≈ 116 µM) | 10 µg/mL (≈ 29 µM) | 40 µg/mL (≈ 116 µM) | 0.625 µg/mL (≈ 1.81 µM) | 880 mg/kg | 1.25 µg/mL (≈ 3.62 µM) | 2.5 µg/mL (≈ 7.25 µM) | 5 µg/mL (≈ 14.5 µM) | > 160 µg/mL | 0.312 µg/mL (≈ 0.905 µM) | – | MIC [1, 22]: 1.25 µg/mL (≈ 3.62 µM); MIC [21, 28]: 2.5 µg/mL (≈ 7.25 µM) |
| Clc1ccc(C(Cn2ccnc2)OCc2ccc(-c3ccccc3)cc2)c(Cl)c1 (stereo not drawn) [R=C6 H5, 2,4-Dichloro-4'-phenyl-α-(N-imidazolyl-methyl)-dibenzyl ether] | 20 µg/mL (≈ 47.2 µM) | 0.156 µg/mL (≈ 0.368 µM) | – | 10 µg/mL (≈ 23.6 µM) | – | 1.25 µg/mL (≈ 2.95 µM) | 20 µg/mL (≈ 47.2 µM) | 20 µg/mL (≈ 47.2 µM) | 5 µg/mL (≈ 11.8 µM) | 10 µg/mL (≈ 23.6 µM) | 5 µg/mL (≈ 11.8 µM) | 20 µg/mL (≈ 47.2 µM) | – | 2400 mg/kg | – | 0.156 µg/mL (≈ 0.368 µM) | 0.312 µg/mL (≈ 0.737 µM) | < 1.25 µg/mL | – | 10 µg/mL (≈ 23.6 µM) | MIC [4, 30]: 0.625 µg/mL (≈ 1.48 µM); MIC [6, 31]: 0.625 µg/mL (≈ 1.48 µM); MIC [14, 32]: 0.312 µg/mL (≈ 0.737 µM); MIC [16, 33]: 0.039 µg/mL (≈ 0.0921 µM); MIC [20, 34]: 0.039 µg/mL (≈ 0.0921 µM); MIC [21, 35]: 0.156 µg/mL (≈ 0.368 µM) |
| Clc1ccc(C(Cn2ccnc2)OCc2ccc(Sc3ccccc3)cc2)c(Cl)c1 (stereo not drawn) [R=C6 H5 S, 2,4-Dichloro-4'-phenylthio-α-(N-imidazolyl-methyl)-dibenzyl ether] | 2.5 µg/mL (≈ 5.49 µM) | 0.156 µg/mL (≈ 0.343 µM) | – | 5 µg/mL (≈ 11 µM) | – | 1.25 µg/mL (≈ 2.74 µM) | 5 µg/mL (≈ 11 µM) | 10 µg/mL (≈ 22 µM) | 40 µg/mL (≈ 87.8 µM) | 80 µg/mL (≈ 176 µM) | 40 µg/mL (≈ 87.8 µM) | 80 µg/mL (≈ 176 µM) | – | 3000 mg/kg | – | 0.156 µg/mL (≈ 0.343 µM) | 0.078 µg/mL (≈ 0.171 µM) | 5 µg/mL (≈ 11 µM) | – | 1.25 µg/mL (≈ 2.74 µM) | MIC [4, 30]: 0.625 µg/mL (≈ 1.37 µM); MIC [6, 31]: 0.625 µg/mL (≈ 1.37 µM); MIC [14, 32]: 0.156 µg/mL (≈ 0.343 µM); MIC [16, 33]: 0.018 µg/mL (≈ 0.0395 µM); MIC [20, 34]: 0.039 µg/mL (≈ 0.0856 µM); MIC [21, 35]: 0.078 µg/mL (≈ 0.171 µM) |
| Clc1ccc(COC(Cn2ccnc2)c2ccc(Cl)cc2Cl)c(Cl)c1 (stereo not drawn) [Miconazole, 2,2',4,4'-tetrachloro-α-(N-imidazolyl-methyl)-dibenzyl ether] | 5 µg/mL (≈ 12 µM) | 0.078 µg/mL (≈ 0.187 µM) | 0.625 µg/mL (≈ 1.5 µM) | 5 µg/mL (≈ 12 µM) | 0.312 µg/mL (≈ 0.75 µM) | 0.31 µg/mL (≈ 0.745 µM) | 20 µg/mL (≈ 48.1 µM) | 40 µg/mL (≈ 96.1 µM) | 5 µg/mL (≈ 12 µM) | 20 µg/mL (≈ 48.1 µM) | 5 µg/mL (≈ 12 µM) | 20 µg/mL (≈ 48.1 µM) | 0.078 µg/mL (≈ 0.187 µM) | 870 mg/kg | 0.312 µg/mL (≈ 0.75 µM) | 1.25 µg/mL (≈ 3 µM) | – | < 1.25 µg/mL | 0.312 µg/mL (≈ 0.75 µM) | 2.5 µg/mL (≈ 6.01 µM) | MIC [18, 28]: 0.625 µg/mL (≈ 1.5 µM); MIC [21, 28]: 0.625 µg/mL (≈ 1.5 µM) |
